Experiments:
[1] = molecular target: Serine/threonine-protein kinase RIO1 (Homo sapiens) (UniProt Q9BRS2); details: Compound concentration 100.0 nM
[2] = molecular target: Phosphatidylinositol 4-phosphate 5-kinase type-1 gamma (Homo sapiens) (UniProt O60331); details: Compound concentration 100.0 nM
[3] = test system: Tyrosine-protein kinase ABL1 (Homo sapiens), P00519 [F317L]; details: Compound concentration 100.0 nM
[4] = molecular target: Tyrosine-protein kinase ABL1 (Homo sapiens) (UniProt P00519); details: Compound concentration 100.0 nM
[5] = molecular target: Focal adhesion kinase 1 (Homo sapiens) (UniProt Q05397); details: Compound concentration 100.0 nM
[6] = molecular target: T1, Alpha-2B adrenergic receptor (Homo sapiens) (UniProt P18089); details: Compound concentration 10.0 uM
T1 sequence (whole entry): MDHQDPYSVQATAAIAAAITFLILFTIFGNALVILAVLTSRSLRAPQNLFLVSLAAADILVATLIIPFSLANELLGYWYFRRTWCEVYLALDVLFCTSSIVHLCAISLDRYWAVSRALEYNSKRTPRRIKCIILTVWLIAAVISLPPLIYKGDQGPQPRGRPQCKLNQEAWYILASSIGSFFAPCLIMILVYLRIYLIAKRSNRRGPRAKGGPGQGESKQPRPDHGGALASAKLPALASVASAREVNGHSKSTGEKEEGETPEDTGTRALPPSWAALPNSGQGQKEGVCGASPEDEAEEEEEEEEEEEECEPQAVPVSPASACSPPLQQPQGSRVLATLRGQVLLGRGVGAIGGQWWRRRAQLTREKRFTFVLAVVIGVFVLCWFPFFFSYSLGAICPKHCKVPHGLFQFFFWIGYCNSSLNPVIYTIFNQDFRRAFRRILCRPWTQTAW

[7] = molecular target: Macrophage colony-stimulating factor 1 receptor (Homo sapiens) (UniProt P07333); details: Compound concentration 100.0 nM
[8] = molecular target: T2, 5-hydroxytryptamine receptor 1A (Homo sapiens) (UniProt P08908); details: Compound concentration 10.0 uM
T2 sequence (whole entry): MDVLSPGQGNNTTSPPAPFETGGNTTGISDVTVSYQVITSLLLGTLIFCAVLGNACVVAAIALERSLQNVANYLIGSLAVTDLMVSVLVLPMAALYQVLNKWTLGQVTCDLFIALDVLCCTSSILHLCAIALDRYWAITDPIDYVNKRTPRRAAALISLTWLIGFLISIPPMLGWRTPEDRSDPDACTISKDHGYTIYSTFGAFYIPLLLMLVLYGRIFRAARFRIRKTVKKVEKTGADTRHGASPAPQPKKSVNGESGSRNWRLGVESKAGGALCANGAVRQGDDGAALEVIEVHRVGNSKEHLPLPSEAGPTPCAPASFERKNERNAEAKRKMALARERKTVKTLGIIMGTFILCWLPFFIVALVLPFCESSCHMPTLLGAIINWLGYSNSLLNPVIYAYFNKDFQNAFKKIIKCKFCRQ

[9] = test system: Mast/stem cell growth factor receptor Kit (Homo sapiens), P10721 [L576P]; details: Compound concentration 100.0 nM
[10] = molecular target: Ribosomal protein S6 kinase alpha-3 (Homo sapiens) (UniProt P51812); details: Compound concentration 100.0 nM
[11] = molecular target: SRSF protein kinase 2 (Homo sapiens) (UniProt P78362); details: Compound concentration 100.0 nM
[12] = molecular target: Serine/threonine-protein kinase PAK 3 (Homo sapiens) (UniProt O75914); details: Compound concentration 100.0 nM
[13] = molecular target: Mitogen-activated protein kinase kinase kinase kinase 2 (Homo sapiens) (UniProt Q12851); details: Compound concentration 100.0 nM
[14] = molecular target: Receptor-interacting serine/threonine-protein kinase 1 (Homo sapiens) (UniProt Q13546); details: Compound concentration 100.0 nM
[15] = molecular target: Serine/threonine-protein kinase MAK (Homo sapiens) (UniProt P20794); details: Compound concentration 100.0 nM
[16] = molecular target: Dual specificity protein kinase CLK3 (Homo sapiens) (UniProt P49761); details: Compound concentration 100.0 nM
[17] = molecular target: Serine/threonine-protein kinase 35 (Homo sapiens) (UniProt Q8TDR2); details: Compound concentration 100.0 nM
[18] = molecular target: Mitogen-activated protein kinase kinase kinase 13 (Homo sapiens) (UniProt O43283); details: Compound concentration 100.0 nM
[19] = molecular target: Histamine H2 receptor (Homo sapiens) (UniProt P25021); details: Compound concentration 10.0 uM
[20] = molecular target: TRAF2 and NCK-interacting protein kinase (Homo sapiens) (UniProt Q9UKE5); details: Compound concentration 100.0 nM
[21] = molecular target: Serine/threonine-protein kinase LATS2 (Homo sapiens) (UniProt Q9NRM7); details: Compound concentration 100.0 nM
[22] = molecular target: Tyrosine-protein kinase TXK (Homo sapiens) (UniProt P42681); details: Compound concentration 100.0 nM
[23] = molecular target: Eukaryotic translation initiation factor 2-alpha kinase 1 (Homo sapiens) (UniProt Q9BQI3); details: Compound concentration 100.0 nM
[24] = test system: eIF-2-alpha kinase GCN2 (Homo sapiens), Q9P2K8 [S808G]; details: Compound concentration 100.0 nM
[25] = molecular target: Macrophage-stimulating protein receptor (Homo sapiens) (UniProt Q04912); details: Compound concentration 100.0 nM
[26] = test system: Phosphatidylinositol 4,5-bisphosphate 3-kinase catalytic subunit alpha isoform (Homo sapiens), P42336 [C420R]; details: Compound concentration 100.0 nM
[27] = test system: Phosphatidylinositol 4,5-bisphosphate 3-kinase catalytic subunit alpha isoform (Homo sapiens), P42336 [E542K]; details: Compound concentration 100.0 nM
[28] = molecular target: Histamine H3 receptor (Homo sapiens) (UniProt Q9Y5N1); details: Compound concentration 10.0 uM
[29] = molecular target: Calcium/calmodulin-dependent protein kinase type IV (Homo sapiens) (UniProt Q16566); details: Compound concentration 100.0 nM
[30] = molecular target: Dual specificity protein kinase CLK1 (Homo sapiens) (UniProt P49759); details: Compound concentration 100.0 nM
[31] = molecular target: Ephrin type-B receptor 4 (Homo sapiens) (UniProt P54760); details: Compound concentration 100.0 nM
[32] = test system: Mast/stem cell growth factor receptor Kit (Homo sapiens), P10721 [V559D,T670I]; details: Compound concentration 100.0 nM
[33] = molecular target: Serine/threonine-protein kinase D3 (Homo sapiens) (UniProt O94806); details: Compound concentration 100.0 nM

Chain of Histamine H2 receptor (Homo sapiens) (P25021 whole entry): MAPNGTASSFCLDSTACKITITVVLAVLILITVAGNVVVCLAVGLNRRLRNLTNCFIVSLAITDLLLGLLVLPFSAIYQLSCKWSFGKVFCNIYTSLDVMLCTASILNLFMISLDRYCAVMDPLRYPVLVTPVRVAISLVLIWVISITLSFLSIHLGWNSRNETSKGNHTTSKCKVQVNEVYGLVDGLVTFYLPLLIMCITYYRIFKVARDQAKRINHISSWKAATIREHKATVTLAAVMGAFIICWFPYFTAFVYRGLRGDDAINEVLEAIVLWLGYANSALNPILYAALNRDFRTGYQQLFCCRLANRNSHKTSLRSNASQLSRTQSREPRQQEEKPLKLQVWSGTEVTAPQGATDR
Chain of Dual specificity protein kinase CLK1 (Homo sapiens) (P49759 whole entry, looked up): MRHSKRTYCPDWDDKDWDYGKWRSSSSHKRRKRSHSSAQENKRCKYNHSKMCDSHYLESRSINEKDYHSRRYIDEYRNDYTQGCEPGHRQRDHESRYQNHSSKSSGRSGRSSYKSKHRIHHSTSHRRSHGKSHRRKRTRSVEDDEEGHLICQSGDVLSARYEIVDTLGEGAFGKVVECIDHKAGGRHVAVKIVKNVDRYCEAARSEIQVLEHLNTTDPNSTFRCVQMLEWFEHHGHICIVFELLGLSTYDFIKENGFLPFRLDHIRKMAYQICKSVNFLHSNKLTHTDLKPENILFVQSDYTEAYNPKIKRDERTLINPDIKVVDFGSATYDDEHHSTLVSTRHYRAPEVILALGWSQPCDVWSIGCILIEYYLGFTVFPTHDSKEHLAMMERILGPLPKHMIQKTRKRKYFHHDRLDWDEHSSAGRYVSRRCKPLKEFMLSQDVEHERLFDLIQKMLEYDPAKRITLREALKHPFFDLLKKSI
Chain of Dual specificity protein kinase CLK3 (Homo sapiens) (P49761 whole entry, looked up): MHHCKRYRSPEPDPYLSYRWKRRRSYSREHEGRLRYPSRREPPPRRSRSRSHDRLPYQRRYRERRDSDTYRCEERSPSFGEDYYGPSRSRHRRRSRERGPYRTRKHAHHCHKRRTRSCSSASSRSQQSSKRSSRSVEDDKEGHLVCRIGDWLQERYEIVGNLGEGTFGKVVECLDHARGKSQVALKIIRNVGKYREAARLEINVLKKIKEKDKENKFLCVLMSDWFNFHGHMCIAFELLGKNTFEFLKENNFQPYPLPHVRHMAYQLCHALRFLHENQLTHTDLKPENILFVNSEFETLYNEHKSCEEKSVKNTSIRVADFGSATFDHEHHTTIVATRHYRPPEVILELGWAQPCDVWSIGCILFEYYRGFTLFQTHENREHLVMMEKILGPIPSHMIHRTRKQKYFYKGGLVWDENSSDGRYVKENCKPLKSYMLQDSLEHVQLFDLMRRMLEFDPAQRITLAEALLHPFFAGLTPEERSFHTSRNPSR
Chain of SRSF protein kinase 2 (Homo sapiens) (P78362 whole entry, looked up): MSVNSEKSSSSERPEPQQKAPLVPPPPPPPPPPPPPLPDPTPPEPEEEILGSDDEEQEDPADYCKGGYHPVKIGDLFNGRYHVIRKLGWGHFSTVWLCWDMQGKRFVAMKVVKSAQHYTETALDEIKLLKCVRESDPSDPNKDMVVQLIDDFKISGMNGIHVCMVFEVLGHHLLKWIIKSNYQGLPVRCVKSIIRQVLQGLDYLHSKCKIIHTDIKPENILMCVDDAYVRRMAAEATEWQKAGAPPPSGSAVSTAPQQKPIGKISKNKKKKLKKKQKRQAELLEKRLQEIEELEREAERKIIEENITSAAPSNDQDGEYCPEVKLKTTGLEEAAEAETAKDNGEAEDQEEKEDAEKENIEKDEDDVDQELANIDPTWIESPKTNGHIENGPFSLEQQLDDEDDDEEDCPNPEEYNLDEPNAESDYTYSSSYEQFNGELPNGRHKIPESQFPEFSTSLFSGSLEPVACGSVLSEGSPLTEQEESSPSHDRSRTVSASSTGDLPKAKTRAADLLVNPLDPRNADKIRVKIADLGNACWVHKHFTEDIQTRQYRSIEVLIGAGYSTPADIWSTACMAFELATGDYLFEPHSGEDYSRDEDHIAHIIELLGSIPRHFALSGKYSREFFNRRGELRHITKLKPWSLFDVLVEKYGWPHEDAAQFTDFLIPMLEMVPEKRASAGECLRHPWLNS
Chain of Tyrosine-protein kinase ABL1 (Homo sapiens) (P00519 whole entry): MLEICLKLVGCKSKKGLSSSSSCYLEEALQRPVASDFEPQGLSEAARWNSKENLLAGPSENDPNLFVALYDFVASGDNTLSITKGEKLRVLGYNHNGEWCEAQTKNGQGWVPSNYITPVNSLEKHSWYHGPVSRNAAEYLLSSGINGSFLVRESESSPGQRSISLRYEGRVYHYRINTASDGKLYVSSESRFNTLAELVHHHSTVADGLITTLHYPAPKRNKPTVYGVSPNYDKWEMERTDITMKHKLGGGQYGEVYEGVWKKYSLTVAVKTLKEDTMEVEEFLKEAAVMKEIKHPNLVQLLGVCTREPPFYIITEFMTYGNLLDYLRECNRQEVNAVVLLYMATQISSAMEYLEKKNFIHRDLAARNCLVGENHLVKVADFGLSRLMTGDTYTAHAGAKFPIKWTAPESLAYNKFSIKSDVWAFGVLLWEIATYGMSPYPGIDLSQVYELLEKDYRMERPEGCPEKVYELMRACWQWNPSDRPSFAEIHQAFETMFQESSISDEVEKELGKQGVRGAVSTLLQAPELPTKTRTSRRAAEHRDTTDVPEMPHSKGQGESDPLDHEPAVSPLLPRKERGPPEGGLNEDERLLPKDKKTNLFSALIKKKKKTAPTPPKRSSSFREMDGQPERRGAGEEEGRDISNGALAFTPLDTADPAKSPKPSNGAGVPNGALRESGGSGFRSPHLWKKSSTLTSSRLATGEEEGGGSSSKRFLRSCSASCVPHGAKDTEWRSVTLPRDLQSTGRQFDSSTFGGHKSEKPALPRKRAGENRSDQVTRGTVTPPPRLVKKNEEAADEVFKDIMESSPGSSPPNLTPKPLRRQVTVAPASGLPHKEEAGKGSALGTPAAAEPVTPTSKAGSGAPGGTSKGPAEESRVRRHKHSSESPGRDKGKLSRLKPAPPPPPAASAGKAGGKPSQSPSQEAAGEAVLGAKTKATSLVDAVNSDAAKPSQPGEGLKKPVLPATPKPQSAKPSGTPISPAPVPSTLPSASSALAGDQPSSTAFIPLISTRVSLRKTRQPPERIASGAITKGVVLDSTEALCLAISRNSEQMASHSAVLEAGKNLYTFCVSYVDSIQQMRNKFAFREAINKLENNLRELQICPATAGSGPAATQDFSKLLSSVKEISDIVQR
Chain of Mitogen-activated protein kinase kinase kinase 13 (Homo sapiens) (O43283 whole entry): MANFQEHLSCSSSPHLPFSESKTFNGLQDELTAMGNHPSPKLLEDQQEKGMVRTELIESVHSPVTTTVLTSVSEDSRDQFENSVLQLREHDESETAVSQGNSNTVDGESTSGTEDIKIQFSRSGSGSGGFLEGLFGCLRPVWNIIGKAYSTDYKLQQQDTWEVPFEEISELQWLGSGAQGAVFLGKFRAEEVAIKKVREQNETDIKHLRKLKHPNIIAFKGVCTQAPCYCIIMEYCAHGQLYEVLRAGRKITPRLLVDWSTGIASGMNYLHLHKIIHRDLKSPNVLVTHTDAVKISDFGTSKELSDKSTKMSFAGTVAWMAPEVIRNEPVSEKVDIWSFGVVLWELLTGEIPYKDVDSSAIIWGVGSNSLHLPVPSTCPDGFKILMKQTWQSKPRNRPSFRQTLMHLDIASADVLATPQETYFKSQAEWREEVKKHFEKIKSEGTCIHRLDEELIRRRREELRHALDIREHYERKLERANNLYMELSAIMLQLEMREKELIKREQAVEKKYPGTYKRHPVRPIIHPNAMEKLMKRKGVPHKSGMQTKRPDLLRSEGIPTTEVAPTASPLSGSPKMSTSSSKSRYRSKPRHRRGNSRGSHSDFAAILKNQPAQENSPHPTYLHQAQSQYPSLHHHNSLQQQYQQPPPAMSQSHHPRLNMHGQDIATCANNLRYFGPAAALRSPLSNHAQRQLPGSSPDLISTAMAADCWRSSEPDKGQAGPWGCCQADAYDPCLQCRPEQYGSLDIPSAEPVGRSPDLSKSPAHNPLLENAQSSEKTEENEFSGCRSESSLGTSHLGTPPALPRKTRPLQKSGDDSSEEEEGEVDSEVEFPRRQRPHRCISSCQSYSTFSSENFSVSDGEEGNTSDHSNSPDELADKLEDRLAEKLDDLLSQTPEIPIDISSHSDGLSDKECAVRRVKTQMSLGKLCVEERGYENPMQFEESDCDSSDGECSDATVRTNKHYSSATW
Chain of Phosphatidylinositol 4-phosphate 5-kinase type-1 gamma (Homo sapiens) (O60331 whole entry): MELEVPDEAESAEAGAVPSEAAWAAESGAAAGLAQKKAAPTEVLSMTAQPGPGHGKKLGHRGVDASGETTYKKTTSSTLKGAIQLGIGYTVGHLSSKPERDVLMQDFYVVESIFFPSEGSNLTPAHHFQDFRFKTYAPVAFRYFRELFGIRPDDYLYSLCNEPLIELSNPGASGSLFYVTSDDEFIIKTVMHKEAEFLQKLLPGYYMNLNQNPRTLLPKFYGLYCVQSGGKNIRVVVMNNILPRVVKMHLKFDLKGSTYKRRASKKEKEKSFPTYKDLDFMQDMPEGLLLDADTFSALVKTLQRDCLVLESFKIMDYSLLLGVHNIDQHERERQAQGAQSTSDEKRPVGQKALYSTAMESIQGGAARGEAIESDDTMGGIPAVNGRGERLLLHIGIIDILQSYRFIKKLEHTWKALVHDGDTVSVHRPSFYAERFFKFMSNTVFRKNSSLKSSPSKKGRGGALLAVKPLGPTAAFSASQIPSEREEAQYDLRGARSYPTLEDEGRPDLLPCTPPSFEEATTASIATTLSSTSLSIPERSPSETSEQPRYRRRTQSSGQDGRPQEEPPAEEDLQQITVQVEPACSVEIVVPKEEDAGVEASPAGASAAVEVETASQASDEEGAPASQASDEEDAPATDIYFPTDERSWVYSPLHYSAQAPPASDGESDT
Chain of Tyrosine-protein kinase ABL1 (Homo sapiens), P00519 [F317L] (P00519 whole entry F317L): as the sequence (P00519 whole entry) above, with F317L counted along it

CC(C)CC(=O)N1CCc2nc(-c3ccc(Br)cc3)nc(N(C)Cc3ccccc3)c2C1 [THPP-1-NC]
inactive: residual activity [1] 98% | residual activity [2] 85% | residual activity [3] 100% | residual activity [4] 66% | residual activity [5] 92% | inhibition [6] 29% | residual activity [7] 100% | inhibition [8] -0.56% | residual activity [9] 94% | residual activity [10] 94% | residual activity [11] 100% | residual activity [12] 100% | residual activity [13] 100% | residual activity [14] 100% | residual activity [15] 99% | residual activity [16] 100% | residual activity [17] 96% | residual activity [18] 66% | inhibition [19] 3.39% | residual activity [20] 100% | residual activity [21] 94% | residual activity [22] 100% | residual activity [23] 100% | residual activity [24] 100% | residual activity [25] 100% | residual activity [26] 87% | residual activity [27] 100% | inhibition [28] 18.3% | residual activity [29] 100% | residual activity [30] 100% | residual activity [31] 100% | residual activity [32] 95% | residual activity [33] 100%

COCCOc1nc(-c2ccc(Cl)nc2)nc2c1CN(C(=O)c1ncn3ccccc13)CC2 [THPP-1]
inactive: residual activity [1] 93% | residual activity [2] 67% | residual activity [3] 100% | residual activity [4] 68% | residual activity [5] 99% | inhibition [6] -2.32% | residual activity [7] 100% | inhibition [8] -0.41% | residual activity [9] 100% | residual activity [10] 100% | residual activity [11] 100% | residual activity [12] 100% | residual activity [13] 100% | residual activity [14] 100% | residual activity [15] 100% | residual activity [16] 100% | residual activity [17] 100% | residual activity [18] 87% | inhibition [19] -0.24% | residual activity [20] 100% | residual activity [21] 68% | residual activity [22] 100% | residual activity [23] 100% | residual activity [24] 100% | residual activity [25] 100% | residual activity [26] 95% | residual activity [27] 87% | inhibition [28] 5.45% | residual activity [29] 100% | residual activity [30] 100% | residual activity [31] 100% | residual activity [32] 100% | residual activity [33] 94%

Source: ChEMBL document CHEMBL4507293 (2021)
